According to patent publication US11337950B2, “Biologically active cannabidiol analogs” (University of Mississippi, priority 2016, dated 2022):
Entries after “also recorded” stand apart in the source; their conditions may differ. Structures can show the parent of a compound that is named as a salt. Where two headings read alike, the source gives them in different places.

Columns and labels:
[1] = tested on: cisplatin-induced tactile allodynia; assay: Cisplatin-induced tactile allodynia model, electronic von Frey (Examples 23, 24); format: in vivo, C57BL/6 mice; details: mice
[2] = tested on: morphine place preference; assay: Morphine conditioned place preference, model of addiction (Example 25); details: mice
[3] = format: physicochemical; details: for Stability under acidic (gastric juice) conditions, in words: pH 1.2, 37° C.; for Stability under physiologic / intestinal juice conditions, in words: pH 7.4, 37° C.; for Concentration of CBD / Concentration of Δ^9-THC: CBD incubated, 37° C.
Experimental: The stability CBD and CBD analogs (CBD-Mono-VHS and CBD-Di-VHS) was evaluated under acidic and alkaline conditions to simulate exposure to gastric and intestinal fluids. The procedure is outlined as follows: • 1. Stock solution of 5 mg/mL CBD, CBD-Mono-Val-Mono HS, CBD-Di-Val-Di HS was prepared. • 2. Simulated Gastric Fluid (pH 1.2)+1% (SDS) was prepared and kept in 37° C. water bath. • 3. Physiological buffer (pH 7.4)+1% SDS was prepared and kept in 37° C. water bath. • 4. 100 μL of CBD, CBD-Mono-Val-Mono HS or CBD-Di-Val-Di-HS stock in acetonitrile (equivalent to 500 μg) was spiked into separate vials containing 5 ml of either pH 1.2 and 7.4. • 5. At each time point, 100 μL of the solution was withdrawn. • 6. 900 μL acetonitrile was added to each sample. • 7. All samples centrifuged at 4° C. and 13,000 rpm. • 8. 100 μL of the supernatant was withdrawn; to this 100 μL of supernatant, 900 μL of acetonitrile was added and placed in LC vials for analysis. Tables 9, 10 and 11, and FIGS. 7a, 7b, 18, and 19 show the results.

[4] = In vivo eye tissue levels 90 min after topical application in Tocrisolve emulsion (Examples 12-14); set-up: species or system New Zealand albino rabbits; details: for Penetration into the ocular tissues, in words (Example 14): topical Tocrisolve emulsion; for concentration at 90 min: male, New Zealand albino, 90 min post topical 50 μL Tocrisolve emulsion
Experimental: Conscious male New Zealand albino rabbits were used. The formulations were applied topically into the rabbits eyes (50 μL containing the equivalent of 250 μg CBD) in Tocrisolve® emulsion formulations as described in Example 11. The animals were sacrificed 90 min. after drug application and the eye tissues harvested for analysis.
The same procedure was followed as shown under Example 12. Additional CBD analogs were tested in this example. In this example the tissue levels of both free CBD and intact analog were determined.
Formulations: Fifty microlitres of 0.5% w/v CBD in Tocrisolve emulsion (Dose: 0.25 mg)
Animal model: Conscious male new Zealand albino rabbits, Duration of the study: 90 min.
Aqueous humor, Vitreous humor, Retina-Choroid and Iris-Ciliary bodies analysed for parent compound as well as CBD.
Formulations: Fifty microlitres of 0.5% w/v Tocrisolve emulsion formulations (Dose: 0.25 mg)
Animal model: Conscious male new Zealand albino rabbits, Duration of the study: 90 min

[5] = Bioavailability of CBD from suppository formulations containing CBD-Val-HS (Example 15); format: in vivo; details: cannulated rats, rectal suppository; PEG 1000 (7 mg) vs Wecobe W (6.125 or 4.625 mg)
Experimental: CBD-Val-HS was formulated in both lipophilic (Wecobe W base) and hydrophilic (PEG 1000 base) suppository formulations. The formulations were administered to cannulated rats (100 mg suppository per rat) and blood samples were collected, centrifuged and the plasma separated for LC/MS/MS analysis. The amount of CBD in the plasma samples was quantified. The amount of CBD-Val-HS in the plasma samples was not quantified.

[6] = Solubility of CBD and its analogs in Tocrisolve emulsion; format: physicochemical; details: for Maximum solubility achieved in Tocrisolve: as the substance itself
Experimental: Formulations: 0.5% w/v CBD equivalent in Tocrisolve emulsion.
Tocrisolve composition: […] emulsion composed of a 1:4 ratio of soya oil/water that is emulsified with the block co-polymer Pluronic F68. Manufacturing process for the Tocrisolve emulsion: • Add accurately weighed amount of drug a glass vial. • Add required volume of Torcisolve blank emulsion to each vial • Vortex each vial for 5 minutes. • Sonicate each vial for 10 minutes. • Centrifuge each vial for 5 minutes at 9000 rpm at 25° C. • Collect the supernatant and analyze for CBD, CBD-Val Mono and CBD-Val-HS mono as applicable.

[7] = rabbit eye, 90 min post topical, 250 μg CBD equivalent

CN1CC[C@]23c4c5ccc(O)c4O[C@H]2[C@@H](O)C=C[C@H]3[C@H]1C5.O=S(=O)(O)O [morphine, Morphine sulfate]
Effect on cisplatin-induced tactile allodynia (eVF paw withdrawal), in words ([1]; Example 23, 0.1 mg/kg IP alone, 45 minutes prior to testing): did not affect eVF responses
Effect on cisplatin-induced tactile allodynia (eVF paw withdrawal), in words ([1]; Example 23, 2.5 mg/kg IP alone, 45 minutes prior to testing): fully attenuated tactile allodynia
Effect on cisplatin-induced tactile allodynia (eVF paw withdrawal), in words ([1]; Example 24, 0.1 mg/kg IP alone): did not affect eVF responses
Effect on cisplatin-induced tactile allodynia (eVF paw withdrawal), in words ([1]; Example 24, 2.5 mg/kg IP alone): fully attenuated tactile allodynia
Conditioned place preference scores, in words ([2]; morphine treated vs control group (vehicle+saline)): higher preference scores compared to the control group

C=C(C)C1CCC(C)=CC1c1c(OC(=O)[C@@H](NC(=O)CCC(=O)O)C(C)C)cc(CCCCC)cc1OC(=O)[C@@H](NC(=O)CCC(=O)O)C(C)C (stereo partly shown) [CBD-Val-HS, CBD-Di-Valinate-Di-Hemisuccinate]
Stability under acidic (gastric juice) conditions, in words [3]: stable
Stability under physiologic / intestinal juice conditions, in words [3]: stable
Penetration into the ocular tissues, in words (Example 14) ([4]; rabbit eye): not adequate
Plasma levels of CBD, hydrophilic base compared with lipophilic base, in words [5]: Higher levels of CBD

C=C(C)C1CCC(C)=CC1c1c(OC(=O)[C@@H](N)C(C)C)cc(CCCCC)cc1OC(=O)[C@@H](N)C(C)C (stereo partly shown) [CBD-di-Val, CBD-Di-Valinate]
Penetration into the ocular tissues, in words (Example 14) ([4]; rabbit eye): not adequate

C=C(C)C1CCC(C)=CC1c1c(OC(=O)[C@@H](N)C(C)C)cc(CCCCC)cc1OC(=O)[C@@H](N)C(C)C (stereo partly shown) [CBD-Val-HCl]
Maximum solubility achieved in Tocrisolve [6]: 2.04 % w/v
Maximum solubility achieved in Tocrisolve (In terms of CBD) [6]: (1.09) % w/v
concentration at 90 min ([4]; retina-choroid, Table 2, rabbit eye, 250 μg CBD equivalent, read-out: Concentration of CBD-Val in Retina Choroid): 9.1 ± 1.5 ng/g
Ocular tissue levels, in words (Example 12) [4, 7]: very low levels in the retina choroid

C=C(C)[C@@H]1CCC(C)=C[C@H]1c1c(O)cc(CCCCC)cc1O [CBD, Cannabidiol]
Maximum solubility achieved in Tocrisolve [6]: 1.19 % w/v
Concentration of CBD ([3]; Acid (pH 1.2), Time Point 0): 656 ng/mL
Concentration of Δ^9-THC ([3]; Acid (pH 1.2), Time Point 0): 38 ng/mL
Concentration of CBD ([3]; Acid (pH 1.2), Time Point 15): 553 ng/mL
Concentration of Δ^9-THC ([3]; Acid (pH 1.2), Time Point 15): 238 ng/mL
Concentration of CBD ([3]; Acid (pH 1.2), Time Point 30): 204 ng/mL
Concentration of Δ^9-THC ([3]; Acid (pH 1.2), Time Point 30): 243 ng/mL
Concentration of CBD ([3]; Acid (pH 1.2), Time Point 60): 111 ng/mL
Concentration of Δ^9-THC ([3]; Acid (pH 1.2), Time Point 60): 496 ng/mL
Concentration of CBD ([3]; Acid (pH 1.2), Time Point 90): 91 ng/mL
Concentration of Δ^9-THC ([3]; Acid (pH 1.2), Time Point 90): 625 ng/mL
Concentration of CBD ([3]; Acid (pH 1.2), Time Point 120): 46 ng/mL
Concentration of Δ^9-THC ([3]; Acid (pH 1.2), Time Point 120): 454 ng/mL
Concentration of CBD ([3]; Base (pH 7.4), Time Point 0): 760 ng/mL
Concentration of CBD ([3]; Base (pH 7.4), Time Point 15): 943 ng/mL
Concentration of CBD ([3]; Base (pH 7.4), Time Point 30): 1015 ng/mL
Concentration of CBD ([3]; Base (pH 7.4), Time Point 60): 1119 ng/mL
Concentration of CBD ([3]; Base (pH 7.4), Time Point 90): 1081 ng/mL
Concentration of CBD ([3]; Base (pH 7.4), Time Point 120): 975 ng/mL
Conversion to Δ^9-THC under acidic conditions, in words ([3]; acidic conditions): converts to Δ^9-THC
Stability under acidic (gastric juice) conditions, in words [3]: partially converted to THC
Stability under physiologic / intestinal juice conditions, in words [3]: stable
Effect on cisplatin-induced tactile allodynia (eVF paw withdrawal), in words ([1]; Example 23, 1.0 mg/kg CBD in combination with 0.1 mg/kg morphine, IP): did not further alter the anti-allodynic properties
Effect on cisplatin-induced tactile allodynia (eVF paw withdrawal), in words ([1]; Example 23, 1.0 mg/kg IP alone, 45 minutes prior to testing): modest attenuation of CIN
Effect on cisplatin-induced tactile allodynia (eVF paw withdrawal), in words ([1]; Example 23, 2.0 mg/kg CBD in combination with 0.1 mg/kg morphine, IP): attenuated tactile allodynia comparable to 2.5 mg/kg morphine
Effect on cisplatin-induced tactile allodynia (eVF paw withdrawal), in words ([1]; Example 23, 2.0 mg/kg CBD in combination with 2.5 mg/kg morphine, IP): not further enhanced
Effect on cisplatin-induced tactile allodynia (eVF paw withdrawal), in words ([1]; Example 23, 2.0 mg/kg IP alone, 45 minutes prior to testing): ineffective
concentration at 90 min ([4]; retina-choroid, Table 2, rabbit eye, 250 μg CBD equivalent, read-out: Concentration of CBD in Retina Choroid): 17.3 ± 6.5 ng/g
Ocular tissue levels of the applied substance, in words (Example 13) ([4]; rabbit eye, 90 min post topical, 0.25 mg CBD): no levels in the tissues at all
Ocular tissue levels, in words (Example 12) [4, 7]: very low levels in the retina choroid
Effect on morphine place preference, in words ([2]; morphine groups, IP, CBD 2.5-20.0 mg/kg, CBD-val-HS 10.0 mg/kg): dose-dependently decreased preference scores that approached significance at 10 mg/kg CBD; also recorded: showed a tendency to block the addictive effects of morphine
Place preference or aversion of the substance itself, in words ([2]; saline groups, IP, CBD 2.5-20.0 mg/kg, CBD-val-HS 10.0 mg/kg): did not show neither place preference nor aversion

C=C(C)C1CCC(C)=CC1c1c(OC(=O)CCC(=O)O)cc(CCCCC)cc1OC(=O)CCC(=O)O (stereo not shown) [CBD-HS, CBD-Di-Hemisuccinate]
Maximum solubility achieved in Tocrisolve [6]: 1.12 % w/v
Maximum solubility achieved in Tocrisolve (In terms of CBD) [6]: (0.7) % w/v
Penetration into the ocular tissues, in words (Example 14) ([4]; rabbit eye): not adequate

C=C(C)C1CCC(C)=CC1c1c(OC(=O)[C@@H](NC(=O)CCC(=O)O)C(C)C)cc(CCCCC)cc1OC(=O)[C@@H](NC(=O)CCC(=O)O)C(C)C (stereo partly shown) [CBD-VAL-HS]
concentration at 90 min ([4]; retina-choroid, Table 4, Set 2, rabbit, dose 250 μg, read-out: Analog Concentration, Retina Choroid): 142 ± 76 ng/g

C=C(C)C1CCC(C)=CC1c1c(OC(=O)[C@@H](NC(=O)CCC(=O)O)C(C)C)cc(CCCCC)cc1OC(=O)[C@@H](NC(=O)CCC(=O)O)C(C)C (stereo partly shown) [CBD-Val-HS]
concentration at 90 min ([4]; aqueous humor, Table 2, rabbit eye, 250 μg CBD equivalent, read-out: Concentration of CBD-Val-HS in Aqueous Humor): 24.6 ± 16.2 ng/g
concentration at 90 min ([4]; retina-choroid, Table 2, rabbit eye, 250 μg CBD equivalent, read-out: Concentration of CBD-Val-HS in Retina Choroid): 417 ± 114 ng/g
concentration at 90 min ([4]; vitreous humor, Table 2, rabbit eye, 250 μg CBD equivalent, read-out: Concentration of CBD-Val-HS in Vitreous Humor): 612 ± 264 ng/g

CBD-Mono-Valinate [CBD-VAL-MONO]
Maximum solubility achieved in Tocrisolve [6]: 1.41 % w/v
Maximum solubility achieved in Tocrisolve (In terms of CBD) [6]: (1.07) % w/v
